Measured values from patent publication US8859616B2, “Compounds and methods for enhancing hair growth” (Allergan, Inc., priority 2011, dated 2014).

How the values were obtained:
Assay in all cases: Prostanoid receptor functional activity measured by FLIPR
Format in all cases: cell-based
Details in all cases: n = 6 (#1), n = 3 (#2)
[1] = molecular target: T1, hEP1 (Homo sapiens, UniProt P34995)
T1 sequence (P34995 1-402): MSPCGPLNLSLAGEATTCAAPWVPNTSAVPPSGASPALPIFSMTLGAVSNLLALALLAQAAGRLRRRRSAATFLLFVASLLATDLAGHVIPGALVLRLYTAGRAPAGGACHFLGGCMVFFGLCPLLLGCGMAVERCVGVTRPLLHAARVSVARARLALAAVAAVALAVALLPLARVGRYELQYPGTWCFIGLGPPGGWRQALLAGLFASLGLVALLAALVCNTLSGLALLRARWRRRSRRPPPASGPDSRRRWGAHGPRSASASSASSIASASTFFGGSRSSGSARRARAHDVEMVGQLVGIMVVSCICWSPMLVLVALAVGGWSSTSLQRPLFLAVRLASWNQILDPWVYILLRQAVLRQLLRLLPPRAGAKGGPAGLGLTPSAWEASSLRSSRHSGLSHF
Experimental: (§1) The above compounds are evaluated for their selectivity for various prostaglandin (PG) receptors. […] Thus, the method of the present invention may be carried out with EP3 and EP4 receptor agonists and/or prodrugs of EP3 and EP4 receptor agonists.

[2] = molecular target: hEP4 (Homo sapiens, UniProt P35408)
Sequence of hEP4 (P35408 whole entry): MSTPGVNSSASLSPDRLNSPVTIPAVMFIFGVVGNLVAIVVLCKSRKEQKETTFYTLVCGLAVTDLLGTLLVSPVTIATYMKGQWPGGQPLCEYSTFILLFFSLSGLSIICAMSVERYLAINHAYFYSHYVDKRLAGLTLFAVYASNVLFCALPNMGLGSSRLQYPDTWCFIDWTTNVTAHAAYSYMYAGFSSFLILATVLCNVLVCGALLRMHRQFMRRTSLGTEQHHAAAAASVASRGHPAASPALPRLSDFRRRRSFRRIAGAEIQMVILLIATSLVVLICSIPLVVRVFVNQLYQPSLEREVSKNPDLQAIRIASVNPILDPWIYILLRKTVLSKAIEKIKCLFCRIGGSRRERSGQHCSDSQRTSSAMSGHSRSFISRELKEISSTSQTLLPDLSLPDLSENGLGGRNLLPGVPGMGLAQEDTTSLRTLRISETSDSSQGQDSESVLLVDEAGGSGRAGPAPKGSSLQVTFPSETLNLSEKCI
Experimental: as §1

[3] = molecular target: hIP (Homo sapiens, UniProt P43119)
Sequence of hIP (P43119 whole entry): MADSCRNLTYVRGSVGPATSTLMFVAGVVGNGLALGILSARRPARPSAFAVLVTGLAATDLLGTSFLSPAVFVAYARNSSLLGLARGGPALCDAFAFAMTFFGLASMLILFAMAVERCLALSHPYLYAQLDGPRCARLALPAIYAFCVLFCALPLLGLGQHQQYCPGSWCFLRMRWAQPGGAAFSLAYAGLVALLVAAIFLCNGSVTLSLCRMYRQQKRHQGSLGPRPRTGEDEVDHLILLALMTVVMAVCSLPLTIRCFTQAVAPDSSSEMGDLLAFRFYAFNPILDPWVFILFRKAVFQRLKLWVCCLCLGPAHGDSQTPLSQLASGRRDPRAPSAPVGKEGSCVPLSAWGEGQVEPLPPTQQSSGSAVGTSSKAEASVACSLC
Experimental: as §1

[4] = molecular target: hEP2 (Homo sapiens, UniProt P43116)
Sequence of hEP2 (P43116 whole entry): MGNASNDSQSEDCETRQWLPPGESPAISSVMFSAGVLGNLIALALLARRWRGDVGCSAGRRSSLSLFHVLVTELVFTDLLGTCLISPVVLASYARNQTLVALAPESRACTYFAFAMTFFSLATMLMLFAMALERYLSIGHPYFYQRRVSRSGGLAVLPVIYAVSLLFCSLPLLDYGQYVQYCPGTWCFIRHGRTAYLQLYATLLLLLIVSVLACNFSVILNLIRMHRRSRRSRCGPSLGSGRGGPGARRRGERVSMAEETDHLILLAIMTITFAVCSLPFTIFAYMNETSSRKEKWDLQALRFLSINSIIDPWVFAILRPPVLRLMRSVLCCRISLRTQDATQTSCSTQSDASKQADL
Experimental: as §1

[5] = molecular target: T2, hDP (Homo sapiens, UniProt Q13258)
T2 sequence (Q13258 1-359): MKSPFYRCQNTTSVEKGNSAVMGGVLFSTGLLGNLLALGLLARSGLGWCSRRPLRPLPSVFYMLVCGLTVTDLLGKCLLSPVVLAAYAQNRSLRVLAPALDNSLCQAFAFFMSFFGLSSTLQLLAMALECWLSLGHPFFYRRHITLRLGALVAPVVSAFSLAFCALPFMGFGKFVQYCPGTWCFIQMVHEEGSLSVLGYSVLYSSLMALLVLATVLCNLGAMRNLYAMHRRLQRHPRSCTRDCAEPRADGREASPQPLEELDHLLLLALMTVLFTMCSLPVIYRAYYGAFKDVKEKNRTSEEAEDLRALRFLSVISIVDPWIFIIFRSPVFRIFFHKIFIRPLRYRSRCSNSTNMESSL
Experimental: as §1

[6] = molecular target: T3, hEP3 (Homo sapiens, UniProt P43115)
T3 sequence (P43115 1-390): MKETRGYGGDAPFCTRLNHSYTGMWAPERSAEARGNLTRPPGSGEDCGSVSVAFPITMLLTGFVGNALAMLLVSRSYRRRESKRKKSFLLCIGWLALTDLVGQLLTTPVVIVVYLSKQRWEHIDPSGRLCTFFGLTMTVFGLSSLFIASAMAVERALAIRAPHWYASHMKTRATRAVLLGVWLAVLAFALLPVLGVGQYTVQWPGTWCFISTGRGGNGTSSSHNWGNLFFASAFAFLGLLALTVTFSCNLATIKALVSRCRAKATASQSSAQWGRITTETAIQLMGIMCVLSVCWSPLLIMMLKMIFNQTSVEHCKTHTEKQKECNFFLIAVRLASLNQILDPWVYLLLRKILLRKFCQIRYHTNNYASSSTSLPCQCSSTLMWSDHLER
Experimental: as §1

[7] = molecular target: T4, hTP (Homo sapiens, UniProt P21731)
T4 sequence (P21731 1-343): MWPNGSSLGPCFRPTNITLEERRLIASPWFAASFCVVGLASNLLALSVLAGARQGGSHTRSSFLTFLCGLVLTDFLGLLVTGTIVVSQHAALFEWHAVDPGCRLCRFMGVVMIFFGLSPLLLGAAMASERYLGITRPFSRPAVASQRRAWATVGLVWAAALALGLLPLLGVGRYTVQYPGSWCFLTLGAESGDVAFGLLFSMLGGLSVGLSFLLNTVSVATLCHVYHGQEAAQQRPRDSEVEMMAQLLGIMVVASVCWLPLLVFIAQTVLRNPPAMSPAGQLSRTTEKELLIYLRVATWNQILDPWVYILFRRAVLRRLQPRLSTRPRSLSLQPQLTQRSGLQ
Experimental: as §1

[8] = molecular target: hFP (Homo sapiens, UniProt P43088)
Sequence of hFP (P43088 whole entry): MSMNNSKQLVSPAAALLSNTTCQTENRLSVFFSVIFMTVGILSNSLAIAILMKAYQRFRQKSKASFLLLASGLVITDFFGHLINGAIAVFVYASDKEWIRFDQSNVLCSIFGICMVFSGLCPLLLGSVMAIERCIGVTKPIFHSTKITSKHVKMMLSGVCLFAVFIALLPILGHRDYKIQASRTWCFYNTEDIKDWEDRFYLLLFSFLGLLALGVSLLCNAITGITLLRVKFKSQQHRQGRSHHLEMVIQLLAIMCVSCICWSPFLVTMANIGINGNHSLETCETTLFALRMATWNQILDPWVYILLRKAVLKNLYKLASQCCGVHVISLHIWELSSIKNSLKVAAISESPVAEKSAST
Experimental: as §1

Row | Compound | EC50 [1] [nM] | EC50 [2] [nM] | EC50 [3] [nM] | EC50 [4] [nM] | EC50 [5] [nM] | EC50 [6] [nM] | EC50 [7] [nM] | EC50 [8] [nM]
1 | CCCCC[C@H](O)/C=C/[C@H]1[C@H](O)CC(=O)[C@@H]1SCCCSCC(=O)O [#1, {3-[(1R,2S,3R)-3-Hydroxy-2-((S)-(E)-3-hydroxyoct-1-enyl)-5-oxocyclopentyl-sulfanyl]propylsulfanyl}acetic acid] | 304 | 0.26 | > 10000 | 380 | > 10000 | 36 | 561 | > 10000
2 | CCCCC[C@H](O)/C=C/[C@H]1[C@H](O)CC(=O)[C@@H]1SCCCSCC(=O)OC(C)C [#2, {3-[(1R,2S,3R)-3-Hydroxy-2-((S)-(E)-3-hydroxyoct-1-enyl)-5-oxocyclopentyl-sulfanyl]propylsulfanyl}acetic acid isopropyl ester] | 2260 | 2.55 | > 10000 | 1110 | > 10000 | 44 | 3290 | > 10000
